Results from US20140024123A1, “Aqueous Solution Containing Partial Ras Polypeptide and Method for Screening Inhibitor of Ras Function” (priority 2011, published 2014).

Experiments:
[1] = test system: culture cell lines having a mutation in an active form of any one of H-Ras, N-Ras, and K-Ras; experiment: Cytological activity verification test: anchorage-independent cell growth (soft agar colony formation); type: cell-based; conditions: 0.6% agarose, 37° C., 2 weeks, colonies with diameter of 50 μm or more, relative to compound-free control (100%); FIG. 5
Description: The number of appeared colonies each having a size with a diameter of 50 μm or more was measured. For a medium in which each of the culture cell lines was suspended in a system free of each of the compounds, the number of colonies was similarly measured and used as a control (100%). Each of the compounds was evaluated for its inhibitory activity on colony formation (inhibitory activity on anchorage-independent cell growth) by calculating inhibition ratio for colony formation of the compound administration group relative to the control.

[2] = target: T1, human H-Ras polypeptide (amino acid residues 1 to 166) binding to human c-Raf-1 (amino acid residues 51 to 130) (Homo sapiens, UniProt P01112); experiment: Biochemical activity verification test: inhibition of Ras-Raf binding (GST-Raf pull-down of GTPγ[35S]-labeled Ras, scintillation counting); conditions: compound at various concentrations in 10% DMSO; FIG. 4
T1 construct: a human H-Ras polypeptide (amino acid residues 1 to 166) was used as Ras; GST (N, cleaved yes); made in house; host or cells: Escherichia coli
T1 sequence (P01112 1-166): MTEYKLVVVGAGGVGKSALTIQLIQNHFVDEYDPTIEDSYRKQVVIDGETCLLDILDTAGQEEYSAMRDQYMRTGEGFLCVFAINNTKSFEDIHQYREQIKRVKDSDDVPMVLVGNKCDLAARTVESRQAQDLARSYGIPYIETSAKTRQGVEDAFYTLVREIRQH
Source text: In this experimental example, a human H-Ras polypeptide (amino acid residues 1 to 166) was used as Ras, and a GTP analog (GTPγS (Roche Diagnostics)) was used as GTP. Further, human c-Raf-1 (amino acid residues 51 to 130) was used as Raf, a target protein of Ras.
A fused protein of Raf, a target protein of Ras, and glutathione S-transferase (GST) was expressed in Escherichia coli using a vector for GST-fused protein expression (pGEX-6P-1 vector (GE Healthcare)). The expressed GST-Raf-fused protein was immobilized onto an affinity carrier for purification (glutathione Sepharose 4B: resin (GE Healthcare)).
GTPγ[^35S] (Perkin Elmer), one of the GTP analogs, was added to Ras from which a GST tag was cleaved with a protease for GST-fused protein cleavage (PreScission protease (GE Healthcare)) to produce radiolabeled Ras.
The resin in the reaction liquid was washed, and then a complex of the GST-Raf-fused protein and the radiolabeled Ras was eluted by adding glutathione. A radioactivity of the eluate was subjected to scintillation counting, to thereby measure a binding activity of Ras to Raf, and inhibitory activities on Ras-Raf binding with various compounds were evaluated.

Cc1ccc(NC(=S)NNc2c([N+](=O)[O-])cc(C(F)(F)F)cc2[N+](=O)[O-])cc1Cl [Compound (II)]
inhibitory activity on colony formation (anchorage-independent cell growth) [1]: found to have a colony formation inhibition effect on each cell
inhibitory activity on Ras-Raf binding [2]: found to interact with Ras

O=[N+]([O-])c1ccc(NNC(=S)Nc2ccc(F)cc2)c([N+](=O)[O-])c1 [Compound (III)]
inhibitory activity on colony formation (anchorage-independent cell growth) [1]: found to have a colony formation inhibition effect on each cell
inhibitory activity on Ras-Raf binding [2]: found to interact with Ras

O=[N+]([O-])c1cc(C(F)(F)F)cc([N+](=O)[O-])c1NNC(=S)Nc1ccc(F)cc1 [Compound (IV)]
inhibitory activity on colony formation (anchorage-independent cell growth) [1]: found to have a colony formation inhibition effect on each cell
inhibitory activity on Ras-Raf binding [2]: found to interact with Ras
